Results from patent US20140005163A1 (NOVARTIS AG, priority 2010, published 2014).

Key:
mTOR = target: T1, mTOR (Homo sapiens, UniProt P42345); assay: Biochemical assay for m-TOR by TR-FRET; conditions: 8 μM ATP, 400 nM GFP-4EBP1, 0.5 nM mTOR
T1 construct: purchased Invitrogen Corporation (Carlsbad/CA, USA) PV4753
Method in brief: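 mTOR (0.5 nM final) phosphorylated GFP-4EBP1 (400 nM final) with ATP (8 μM final) at rt in 50 mM HEPES pH 7.5, 10 mM MnCl2, 50 mM NaCl, 1 mM EGTA, 1 mM DTT. EDTA stop with Tb3+-anti-p4EBP1 [pThr46] antibody (0.5 nM); TR-FRET read 15 min later.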

PI3K alpha = target: T2, PI3K alpha (Homo sapiens, UniProt P42336); assay: PI3K alpha kinase assay (Kinase-Glo luminescence); format: biochemical
T2 construct: p85(iSH2) fusion partner (see partner chain) (N); His tag (C); made in house; host or cells: baculovirus; Tn5 (Trichoplusia ni) or TiniPro insect cells
Method in brief: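 Enzyme 10 nM PI3Kα EMV B1075; ATP 1 μM; PI 10 μg/mL; Tris-HCl pH 7.5 10 mM, MgCl2 3 mM, NaCl 50 mM, CHAPS 0.05%, DTT 1 mM; 60 min RT; Kinase-Glo luminescence; 4-parameter IC50 fit, 8 concentrations, single points.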

PI3K beta = target: T3, PI3K beta (Homo sapiens, UniProt P42338); assay: PI3K beta kinase assay (Kinase-Glo luminescence); format: biochemical
T3 construct: for the full-length p110-b subunit are generated and fused by overlapping PCR; p85(iSH2) fusion partner (see partner chain) (N); His tag (C); made in house; host or cells: baculovirus; Tn5 (Trichoplusia ni) or TiniPro insect cells
Method in brief: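 Full-length p110β with a Gly-linked p85 iSH2 and a C-terminal His tag (BV949, 25 nM) was incubated with 10 μg/mL phosphatidylinositol and 1 μM ATP in 10 mM Tris pH 7.5, 3 mM MgCl2, 50 mM NaCl, 0.05% CHAPS, 1 mM DTT for 60 min at room temperature. Residual ATP was read by Kinase-Glo luminescence.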

PI3K delta = target: T4, PI3K delta (Homo sapiens, UniProt O00329); assay: PI3K delta kinase assay (Kinase-Glo luminescence); format: biochemical
T4 construct: for the full-length p110-d subunit are generated and fused by overlapping PCR; p85(iSH2) fusion partner (see partner chain) (N); His tag (C); made in house; host or cells: baculovirus; Tn5 (Trichoplusia ni) or TiniPro insect cells
Method in brief: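 Lipid kinase activity of a His-tagged p110δ full-length/p85 iSH2 fusion (10 nM) toward bovine liver phosphatidylinositol (10 μg/mL) at 1 μM ATP, pH 7.5, 60 min, room temperature. ATP consumption is quantified by luciferase-based luminescence. Four-parameter logistic fitting gives IC50.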

T1 sequence (P42345 1360-2549 limits assumed): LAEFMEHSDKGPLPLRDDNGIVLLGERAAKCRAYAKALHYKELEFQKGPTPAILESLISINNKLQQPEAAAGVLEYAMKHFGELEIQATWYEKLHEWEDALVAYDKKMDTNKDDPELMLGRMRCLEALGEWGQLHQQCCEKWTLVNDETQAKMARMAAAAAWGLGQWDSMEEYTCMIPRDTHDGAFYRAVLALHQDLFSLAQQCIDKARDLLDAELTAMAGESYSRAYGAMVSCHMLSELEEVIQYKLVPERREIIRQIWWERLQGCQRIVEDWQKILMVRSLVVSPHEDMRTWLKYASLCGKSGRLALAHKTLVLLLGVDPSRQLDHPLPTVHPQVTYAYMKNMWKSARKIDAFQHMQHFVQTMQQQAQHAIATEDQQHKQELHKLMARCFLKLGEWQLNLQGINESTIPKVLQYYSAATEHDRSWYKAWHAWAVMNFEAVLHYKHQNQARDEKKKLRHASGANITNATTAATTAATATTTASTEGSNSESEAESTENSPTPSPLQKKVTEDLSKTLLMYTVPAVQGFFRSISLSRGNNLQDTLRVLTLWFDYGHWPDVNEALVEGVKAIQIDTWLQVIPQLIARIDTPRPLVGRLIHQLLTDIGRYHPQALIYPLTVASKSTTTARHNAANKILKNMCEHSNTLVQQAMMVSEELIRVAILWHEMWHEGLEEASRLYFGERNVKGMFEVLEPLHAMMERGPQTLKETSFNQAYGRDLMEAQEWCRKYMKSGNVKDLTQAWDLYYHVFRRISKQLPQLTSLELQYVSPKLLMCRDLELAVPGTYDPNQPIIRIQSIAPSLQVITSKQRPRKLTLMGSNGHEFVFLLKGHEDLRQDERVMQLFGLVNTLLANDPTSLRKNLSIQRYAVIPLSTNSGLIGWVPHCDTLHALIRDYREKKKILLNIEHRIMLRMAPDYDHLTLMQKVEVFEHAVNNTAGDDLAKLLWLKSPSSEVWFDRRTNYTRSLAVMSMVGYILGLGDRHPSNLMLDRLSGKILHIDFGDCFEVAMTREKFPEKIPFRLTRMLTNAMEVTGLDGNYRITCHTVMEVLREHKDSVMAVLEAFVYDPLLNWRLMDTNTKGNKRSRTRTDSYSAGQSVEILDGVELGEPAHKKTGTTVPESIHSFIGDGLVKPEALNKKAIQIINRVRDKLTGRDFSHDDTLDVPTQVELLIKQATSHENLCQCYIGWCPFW
T2 sequence (P42336 with tags, fused parts or gaps limits assumed): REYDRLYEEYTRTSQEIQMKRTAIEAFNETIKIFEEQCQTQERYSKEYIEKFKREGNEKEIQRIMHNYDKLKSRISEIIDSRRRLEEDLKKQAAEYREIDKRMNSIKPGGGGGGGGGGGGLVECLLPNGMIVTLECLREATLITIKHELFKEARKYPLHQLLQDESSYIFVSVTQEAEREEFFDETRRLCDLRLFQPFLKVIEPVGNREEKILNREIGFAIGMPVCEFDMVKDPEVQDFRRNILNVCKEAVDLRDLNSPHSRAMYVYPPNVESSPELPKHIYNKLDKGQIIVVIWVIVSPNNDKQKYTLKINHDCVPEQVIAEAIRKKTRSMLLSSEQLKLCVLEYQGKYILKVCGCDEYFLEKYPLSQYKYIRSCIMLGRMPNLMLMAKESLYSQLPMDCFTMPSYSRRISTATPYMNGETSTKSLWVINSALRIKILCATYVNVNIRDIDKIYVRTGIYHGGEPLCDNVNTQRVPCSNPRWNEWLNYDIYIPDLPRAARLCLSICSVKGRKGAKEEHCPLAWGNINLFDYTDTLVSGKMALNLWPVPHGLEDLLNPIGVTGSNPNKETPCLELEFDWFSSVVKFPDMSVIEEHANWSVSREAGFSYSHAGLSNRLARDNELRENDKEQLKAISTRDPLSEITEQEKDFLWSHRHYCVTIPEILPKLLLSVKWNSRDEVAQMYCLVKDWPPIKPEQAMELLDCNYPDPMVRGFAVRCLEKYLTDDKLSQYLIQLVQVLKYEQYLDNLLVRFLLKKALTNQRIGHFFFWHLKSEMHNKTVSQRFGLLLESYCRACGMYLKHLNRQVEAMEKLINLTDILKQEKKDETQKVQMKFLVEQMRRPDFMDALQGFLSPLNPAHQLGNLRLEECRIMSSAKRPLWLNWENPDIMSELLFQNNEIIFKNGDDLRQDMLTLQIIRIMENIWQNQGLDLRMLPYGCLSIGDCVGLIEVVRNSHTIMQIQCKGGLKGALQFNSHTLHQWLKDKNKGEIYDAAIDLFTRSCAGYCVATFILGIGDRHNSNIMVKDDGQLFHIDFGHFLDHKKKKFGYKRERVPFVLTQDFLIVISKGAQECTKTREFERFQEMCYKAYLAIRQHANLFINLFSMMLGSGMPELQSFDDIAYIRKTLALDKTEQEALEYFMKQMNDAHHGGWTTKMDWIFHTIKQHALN
T3 sequence (P42338 with tags, fused parts or gaps limits assumed): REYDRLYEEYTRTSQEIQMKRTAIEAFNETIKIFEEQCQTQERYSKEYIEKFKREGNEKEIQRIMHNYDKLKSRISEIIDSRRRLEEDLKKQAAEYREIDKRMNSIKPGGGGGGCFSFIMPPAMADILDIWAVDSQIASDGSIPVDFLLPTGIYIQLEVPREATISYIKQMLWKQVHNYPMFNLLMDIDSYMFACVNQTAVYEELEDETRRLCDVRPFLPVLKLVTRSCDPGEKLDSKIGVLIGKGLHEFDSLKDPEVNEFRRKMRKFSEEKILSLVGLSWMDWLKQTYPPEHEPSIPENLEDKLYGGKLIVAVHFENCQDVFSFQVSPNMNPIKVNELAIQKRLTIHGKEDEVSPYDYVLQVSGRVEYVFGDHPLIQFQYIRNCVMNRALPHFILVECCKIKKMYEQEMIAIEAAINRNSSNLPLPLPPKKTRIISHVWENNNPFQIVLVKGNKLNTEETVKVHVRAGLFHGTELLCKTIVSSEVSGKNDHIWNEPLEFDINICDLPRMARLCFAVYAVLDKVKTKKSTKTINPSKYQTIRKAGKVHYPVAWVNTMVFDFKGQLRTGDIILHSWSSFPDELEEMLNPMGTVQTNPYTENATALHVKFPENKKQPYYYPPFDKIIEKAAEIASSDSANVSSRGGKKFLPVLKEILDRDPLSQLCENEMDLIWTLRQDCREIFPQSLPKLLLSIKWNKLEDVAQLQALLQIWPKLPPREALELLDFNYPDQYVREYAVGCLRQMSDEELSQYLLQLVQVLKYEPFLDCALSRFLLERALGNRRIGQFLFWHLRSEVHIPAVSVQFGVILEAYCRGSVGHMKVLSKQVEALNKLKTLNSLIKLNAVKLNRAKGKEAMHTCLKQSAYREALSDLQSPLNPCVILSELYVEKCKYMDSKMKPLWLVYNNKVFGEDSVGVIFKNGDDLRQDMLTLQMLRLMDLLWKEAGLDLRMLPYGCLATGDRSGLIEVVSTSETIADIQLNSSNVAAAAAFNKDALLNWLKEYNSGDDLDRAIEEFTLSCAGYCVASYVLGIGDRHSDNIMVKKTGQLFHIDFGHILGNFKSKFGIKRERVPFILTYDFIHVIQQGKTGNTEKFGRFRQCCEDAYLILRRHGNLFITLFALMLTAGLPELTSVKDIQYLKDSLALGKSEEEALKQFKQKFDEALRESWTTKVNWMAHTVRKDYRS
T4 sequence (O00329 with tags, fused parts or gaps limits assumed): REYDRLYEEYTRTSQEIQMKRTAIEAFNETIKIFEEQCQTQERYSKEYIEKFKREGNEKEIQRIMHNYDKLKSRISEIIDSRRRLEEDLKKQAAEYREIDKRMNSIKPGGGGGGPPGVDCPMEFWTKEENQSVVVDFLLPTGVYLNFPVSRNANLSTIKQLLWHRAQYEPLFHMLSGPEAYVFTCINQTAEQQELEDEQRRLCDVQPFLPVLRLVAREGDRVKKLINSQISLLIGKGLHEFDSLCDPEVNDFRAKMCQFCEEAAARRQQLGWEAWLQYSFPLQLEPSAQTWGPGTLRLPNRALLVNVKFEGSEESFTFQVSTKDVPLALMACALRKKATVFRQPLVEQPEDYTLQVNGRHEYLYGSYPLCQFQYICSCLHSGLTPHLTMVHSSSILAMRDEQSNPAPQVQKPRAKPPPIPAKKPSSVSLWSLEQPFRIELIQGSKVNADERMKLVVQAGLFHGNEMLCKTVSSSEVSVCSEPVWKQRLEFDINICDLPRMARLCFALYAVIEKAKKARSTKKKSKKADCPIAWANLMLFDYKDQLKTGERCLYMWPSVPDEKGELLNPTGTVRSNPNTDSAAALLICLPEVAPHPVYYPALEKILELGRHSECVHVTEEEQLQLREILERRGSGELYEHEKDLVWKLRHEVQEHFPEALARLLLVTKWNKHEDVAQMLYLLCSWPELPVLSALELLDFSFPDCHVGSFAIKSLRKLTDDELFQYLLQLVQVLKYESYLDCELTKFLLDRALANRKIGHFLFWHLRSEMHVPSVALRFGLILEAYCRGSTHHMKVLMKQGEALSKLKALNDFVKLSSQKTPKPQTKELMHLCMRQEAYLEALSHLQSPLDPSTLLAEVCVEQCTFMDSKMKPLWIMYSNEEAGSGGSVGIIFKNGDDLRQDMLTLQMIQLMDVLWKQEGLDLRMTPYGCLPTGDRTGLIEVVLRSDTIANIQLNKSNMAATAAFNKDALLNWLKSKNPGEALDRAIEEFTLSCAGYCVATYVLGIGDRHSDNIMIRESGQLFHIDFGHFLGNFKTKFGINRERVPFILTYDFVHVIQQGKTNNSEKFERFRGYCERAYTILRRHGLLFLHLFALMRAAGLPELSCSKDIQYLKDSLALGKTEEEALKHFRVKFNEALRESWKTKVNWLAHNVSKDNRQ

IC50 (mTOR) [nM]	IC50 (PI3K alpha) [nM]	IC50 (PI3K beta) [nM]	IC50 (PI3K delta) [nM]	SMILES
55	15	81	7	CCOCc1cc(-c2ccc3ncc4c(c3c2)n(-c2cn(CC)nc2C)c(=O)n4C)cnc1N [Example 166.2, 8-(6-Amino-5-ethoxymethyl-pyridin-3-yl)-1-(1-ethyl-3-methyl-1H-pyrazol-4-yl)-3-methyl-1,3-dihydro-imidazo[4,5-c]quinolin-2-one]
9	16	695	84	CNc1ccc(-c2ccc3ncc4c(c3c2)n(-c2cn(CC(=O)N(C)C)nc2C)c(=O)n4C)cn1 [Example 118.3, N,N-Dimethyl-2-{3-methyl-4-[3-methyl-8-(6-methylamino-pyridin-3-yl)-2-oxo-2,3-dihydro-imidazo[4,5-c]quinolin-1-yl]-pyrazol-1-yl}-acetamide]
< 3	9	41	5	CNc1ccc(-c2ccc3ncc4c(c3c2)n(-c2cn(C)nc2Cl)c(=O)n4C)cn1 [Example 118.5, 1-(3-Chloro-1-methyl-1H-pyrazol-4-yl)-3-methyl-8-(6-methylamino-pyridin-3-yl)-1,3-dihydro-imidazo[4,5-c]quinolin-2-one]
4	75	91	39	Cc1nn(C)cc1-n1c(=O)n(C)c2cnc3ccc(-c4cnc(N)nc4)cc3c21 [Example 81.1, 8-(2-Amino-pyrimidin-5-yl)-1-(1,3-dimethyl-1H-pyrazol-4-yl)-3-methyl-1,3-dihydro-imidazo[4,5-c]quinolin-2-one]
172	42	162	18	CCNc1ncc(-c2ccc3ncc4c(c3c2)n(-c2c(C)nn(C)c2C)c(=O)n4C)cc1C(F)(F)F [Example 145.1, 8-(6-Ethylamino-5-trifluoromethyl-pyridin-3-yl)-3-methyl-1-(1,3,5-trimethyl-1H-pyrazol-4-yl)-1,3-dihydro-imidazo[4,5-c]quinolin-2-one]
260	14	37	7	Cc1ncc(-c2ccc3ncc4c(c3c2)n(-c2cn(C)nc2C)c(=O)n4C)cc1N(C)S(C)(=O)=O [Example 75, N-{5-[1-(1,3-Dimethyl-1H-pyrazol-4-yl)-3-methyl-2-oxo-2,3-dihydro-1H-imidazo[4,5-c]quinolin-8-yl]-2-methyl-pyridin-3-yl}-N-methyl-methanesulfonamide]
347	62	278	56	COc1ccc(-c2ccc3ncc4c(c3c2)n(-c2ccnn2C)c(=O)n4C)cn1 [Example 2.2, 8-(6-Methoxy-pyridin-3-yl)-3-methyl-1-(2-methyl-2H-pyrazol-3-yl)-1,3-dihydro-imidazo[4,5-c]quinolin-2-one]
13	17	68	8	Cc1ncc(-c2ccc3ncc4c(c3c2)n(-c2cn(C)nc2C)c(=O)n4C)cc1N [Example 88.2, 8-(5-Amino-6-methyl-pyridin-3-yl)-1-(1,3-dimethyl-1H-pyrazol-4-yl)-3-methyl-1,3-dihydro-imidazo[4,5-c]quinolin-2-one]
4	8	56	34	CNC(=O)c1ccc(-c2ccc3ncc4c(c3c2)n(-c2cn(C)nc2Cl)c(=O)n4C)cc1 [Example 43.2, 4-[1-(3-Chloro-1-methyl-1H-pyrazol-4-yl)-3-methyl-2-oxo-2,3-dihydro-1H-imidazol[4,5-c]quinolin-8-yl]-N-methyl-benzamide]
77	42	93	17	CCNc1cc(-c2ccc3ncc4c(c3c2)n(-c2c(C)nn(CCOC)c2C)c(=O)n4C)cnc1C [Example 87.4, 8-(5-Ethylamino-6-methyl-pyridin-3-yl)-1-[1-(2-methoxy-ethyl)-3,5-dimethyl-1H-pyrazol-4-yl]-3-methyl-1,3-dihydro-imidazo[4,5-c]quinolin-2-one]
3	9	13	10	COc1ncc(-c2ccc3ncc4c(c3c2)n(-c2cn(C)nc2Cl)c(=O)n4C)cc1CO [Example 200, 1-(3-Chloro-1-methyl-1H-pyrazol-4-yl)-8-(5-hydroxymethyl-6-methoxy-pyridin-3-yl)-3-methyl-1,3-dihydro-imidazo[4,5-c]quinolin-2-one]
12	14	34	5	COCc1cc(-c2ccc3ncc4c(c3c2)n(-c2cn(C(C)C)nc2C)c(=O)n4C)cnc1N [Example 168.1, 8-(6-Amino-5-methoxymethyl-pyridin-3-yl)-1-(1-isopropyl-3-methyl-1H-pyrazol-4-yl)-3-methyl-1,3-dihydro-imidazo[4,5-c]quinolin-2-one]
27	4	6	< 3	COCc1cc(-c2ccc3ncc4c(c3c2)n(-c2cn(C)nc2Cl)c(=O)n4C)cnc1OC [Example 201, 1-(3-Chloro-1-methyl-1H-pyrazol-4-yl)-8-(6-methoxy-5-methoxymethyl-pyridin-3-yl)-3-methyl-1,3-dihydro-imidazo[4,5-c]quinolin-2-one]
101	34	324	15	COc1cc(-c2ccc3ncc4c(c3c2)n(-c2cn(C(C)C)nc2C)c(=O)n4C)cnc1CO [Example 194.1, 8-(6-Hydroxymethyl-5-methoxy-pyridin-3-yl)-1-(1-isopropyl-3-methyl-1H-pyrazol-4-yl)-3-methyl-1,3-dihydro-imidazo[4,5-c]quinolin-2-one]
25	56	951	132	CCCOc1ccc(-c2ccc3ncc4c(c3c2)n(-c2cn(C)nc2C)c(=O)n4C)cn1 [Example 55, 1-(1,3-Dimethyl-1H-pyrazol-4-yl)-3-methyl-8-(6-propoxy-pyridin-3-yl)-1,3-dihydro-imidazo[4,5-c]quinolin-2-one]
15	6	21	5	Cc1nn(C)cc1-n1c(=O)n(C)c2cnc3ccc(-c4cnc(F)c(N(C)C)c4)cc3c21 [Example 151, 8-(5-Dimethylamino-6-fluoro-pyridin-3-yl)-1-(1,3-dimethyl-1H-pyrazol-4-yl)-3-methyl-1,3-dihydro-imidazo[4,5-c]quinolin-2-one]
100	45	733	89	Cc1c(-n2c(=O)n(C)c3cnc4ccc(-c5ccc(N(C)C)nc5)cc4c32)cnn1C [Example 4.4, 8-(6-Dimethylamino-pyridin-3-yl)-1-(1,5-dimethyl-1H-pyrazol-4-yl)-3-methyl-1,3-dihydro-imidazo[4,5-c]quinolin-2-one]
139	12	49	13	Cc1nn(C(C)C)cc1-n1c(=O)n(C)c2cnc3ccc(-c4cncc(C(O)(CF)CF)c4)cc3c21 [Example 219, 8-[5-(2-Fluoro-1-fluoromethyl-1-hydroxy-ethyl)-pyridin-3-yl]-1-(1-isopropyl-3-methyl-1H-pyrazol-4-yl)-3-methyl-1,3-dihydro-imidazo[4,5-c]quinolin-2-one]
